Measurements reported in patent US5095013A, “2-(2-vinylpyrrolidinylthio)carbapenem derivatives” (Banyu Pharmaceutical Co., Ltd., priority 1989, dated 1992).
Values after ≈ are worked out from the molar mass of the structure shown. Like-named read-outs stand apart in the source and are kept apart here.

Tests used:
E. cloacae Nek39 = assay: in vitro antibacterial activity, agar plate dilution method (MIC); assay type: cell-based; conditions: Enterobacter cloacae, read-out: Minimum inhibitory concentration (MIC)
Description: (§1) One platinum loopful of each test microorganism incubated overnight in Mueller Hinton broth, was inoculated to Mueller Hinton agar (inoculum size: 10^6 CFU/ml). Such culture media contained antibacterial agents in various concentrations. After incubation at 37° C. for 16 hours, the minimum inhibitory concentrations (MIC: μg/ml) were measured.

Ps. aeruginosa MB5000 = assay: as above; assay type: cell-based; conditions: Pseudomonas aeruginosa, read-out: Minimum inhibitory concentration (MIC)
Description: as §1

S. aureus MB4970 = assay: as above; assay type: cell-based; conditions: Staphylococcus aureus, read-out: Minimum inhibitory concentration (MIC)
Description: as §1

[1] = test system: renal dehydropeptidase I (DHP-I); assay type: in vitro ADME
Text: The DHP-I susceptivity was quantitatively analyzed by the method by Kropp et al., Antimicrob., Agents Chemother., vol. 22, p. 62-70 (1982), whereby the smaller the numerical value representing the ratio to imipenem (=1.0), the higher the stability.

[2] = test system: gram positive bacteria and gram negative bacteria; conditions: cited prior art; cited from earlier work
DHP-I [3] = conditions: cited from earlier work
[4] = cited from earlier work
[5] = due to the decomposition products; cited from earlier work
β-lactamase = conditions: cited from earlier work
[6] = test system: highly methicillin resistant Staphylococcus aureus resistant to imipenem; conditions: cited from earlier work
[7] = test system: imipenem resistant Pseudomonas aeruginosa; conditions: cited from earlier work
[8] = test system: methicillin resistant Staphylococcus aureus; conditions: prior art compounds; cited from earlier work
DHP-I [9] = conditions: cited from earlier work; remark: listed apart in the source
[10] = in vivo; cited from earlier work

With `C[C@@H](O)[C@H]1C(=O)N2C(C(=O)[O-])=C(S[C@@H]3CN[C@H](/C=C/C(N)=O)C3)[C@H](C)[C@H]12.[K+]` the MIC (E. cloacae Nek39; NEK39, 16 h) was 0.025 mg/L, the MIC (Ps. aeruginosa MB5000; MB5000, 16 h) was 0.39 mg/L and the MIC (S. aureus MB4970; MB4970, 16 h) was 0.025 mg/L. For the same molecule, the DHP-I susceptivity [1] was 0.2.
`C[C@@H](O)[C@H]1C(=O)N2C(C(=O)O)=C(S[C@@H]3CN[C@H](/C=C4\CCNC4=O)C3)[C@H](C)[C@H]12` [Example 12, (1R,5S,6S)-6-[(R)-1-Hydroxyethyl]-1-methyl-2-[(2S,4S)-2[(E)-(2-oxopyrrolidin-3-ylidene)methyl]pyrrolidin-4-ylthio]-1-carbapen-2-em-3-carboxylic acid] gave an MIC (E. cloacae Nek39; E. cloacae Nek39, Mueller Hinton agar, inoculum 10^6 CFU/ml, 37° C., 16 hours) of 0.025 mg/L (≈ 0.0614 µM), an MIC (Ps. aeruginosa MB5000; Ps. aeruginosa MB5000, Mueller Hinton agar, inoculum 10^6 CFU/ml, 37° C., 16 hours) of 0.39 mg/L (≈ 0.957 µM) and an MIC (S. aureus MB4970; S. aureus MB4970, Mueller Hinton agar, inoculum 10^6 CFU/ml, 37° C., 16 hours) of 0.025 mg/L (≈ 0.0614 µM). It also gave a DHP-I susceptivity [1] of 0.04.
For `C[C@@H](O)[C@H]1C(=O)N2C(C(=O)O)=C(SCCN=CN)C[C@H]12` [Imipenem, imipenem], the DHP-I susceptivity [1] is given as 1.0, the “antibacterial activities (in words)” value [2] is given as “antibacterial activities of an equal or higher level than thienamycin against various types of bacteria” and the “decomposition by DHP-I in the human kidney” value (DHP-I [3]) is given as “likely to be decomposed by DHP-I in the human kidney”. For the same molecule, the “stability in the solid form or in an aqueous solution” value ([4]; compared with thienamycin) was “remarkably improved over thienamycin”, the “toxicity against the kidney” value [5] was “presents toxicity against the kidney due to the decomposition products” and the β-lactamase resistance (β-lactamase) was “has β-lactamase resistance”. The “treating effect (in words)” value [6] was “does not show adequate treating effects” and the “treating effect (in words)” value [7] was “does not show adequate treating effects”.
In the case of `C[C@@H](O)[C@H]1C(=O)N2C(C(=O)O)=C(S[C@@H]3CN[C@H](C(=O)N(C)C)C3)[C@H](C)[C@H]12` [meropenem], the “antibacterial activity against highly methicillin resistant Staphylococcus aureus (in words)” value [8] is given as “not adequate” and the “stability against DHP-I (in words)” value (DHP-I [9]; prior art compounds) is given as “substantially improved”.
For `C[C@@H](O)[C@H]1C(=O)N2C(C(=O)O)=C(SCCN)C[C@H]12` [thienamycin], the “antibacterial activities (in words)” value [2] is listed as “strong antibacterial activities over a wide range against gram positive bacteria and gram negative bacteria”, the “decomposition by DHP-I (in words)” value (DHP-I [9]; renal dehydropeptidase I, in vivo) is listed as “likely to be decomposed by a certain enzyme in vivo such as renal dehydropeptidase I” and the “chemical stability (in words)” value ([4]; cited prior art) is listed as “chemically unstable”. For the same molecule, the “recovery rate in the urine” value [10] was “low”.
